Results as given in ChEMBL document CHEMBL4800723, “Data for DCP probe BI-1942” (2021).
The source made the active and inactive calls. No cut-off for these calls is given here.

How the values were obtained:
[1] = molecular target: 5-hydroxytryptamine receptor 2B (Homo sapiens) (UniProt P41595); test: 5HT2B/H AG Eurofins SafetyScreen44 (BI); settings: filed as agonist, Compound concentration 10.0 uM
[2] = molecular target: D(1A) dopamine receptor (Homo sapiens) (UniProt P21728); settings: Compound concentration 10.0 uM
[3] = molecular target: Glutamate NMDA receptor (Rattus norvegicus) (UniProt P35439+Q00959+Q00960+Q00961+Q62645+Q8VHN2+Q9R1M7); test: NMDA/R Eurofins SafetyScreen44 (BI); assay type: protein-complex assay; settings: Compound concentration 10.0 uM
[4] = molecular target: Histamine H2 receptor (Homo sapiens) (UniProt P25021); settings: Compound concentration 10.0 uM
[5] = molecular target: T1, GABA-A receptor; anion channel (Rattus norvegicus) (UniProt O09028+P15431+P18506+P18508+P19969+P20236+P23574+P23576+P28471+P28473+P30191+P62813+P63079+P63138+Q91ZM7+Q9ES14); settings: Compound concentration 10.0 uM
[6] = molecular target: Alpha-2B adrenergic receptor (Homo sapiens) (UniProt P18089); settings: Compound concentration 10.0 uM
[7] = molecular target: 5-hydroxytryptamine receptor 1B (Homo sapiens) (UniProt P28222); settings: Compound concentration 10.0 uM
[8] = molecular target: Cathepsin B (Homo sapiens) (UniProt P07858); test: CATHEPSB(H) Eurofins SafetyScreen44 (BI); settings: Compound concentration 10.0 uM
[9] = molecular target: Angiotensin-converting enzyme (Homo sapiens) (UniProt P12821); test: ACE(HU) Eurofins SafetyScreen44 (BI); settings: Compound concentration 10.0 uM
[10] = molecular target: Cathepsin E (Homo sapiens) (UniProt P14091); test: CATHEPSINE Eurofins SafetyScreen44 (BI); settings: Mus musculus; Compound concentration 10.0 uM
[11] = molecular target: Histamine H3 receptor (Homo sapiens) (UniProt Q9Y5N1); settings: Compound concentration 10.0 uM
[12] = molecular target: Androgen receptor (Homo sapiens) (UniProt P10275); test: ANDROGEN/H Eurofins SafetyScreen44 (BI); settings: Compound concentration 10.0 uM
[13] = molecular target: T1, GABA-A receptor; anion channel (Rattus norvegicus); test: BZD/CENTR/R Eurofins SafetyScreen44 (BI); assay type: protein-complex assay; settings: Compound concentration 10.0 uM
[14] = molecular target: 5-hydroxytryptamine receptor 1A (Homo sapiens) (UniProt P08908); settings: Compound concentration 10.0 uM
[15] = molecular target: Cathepsin G (Homo sapiens) (UniProt P08311); test: CATHEPSG(H) Eurofins SafetyScreen44 (BI); settings: Compound concentration 10.0 uM
[16] = molecular target: Cathepsin Z (Homo sapiens) (UniProt Q9UBR2); test: CATHEPSINX(H) Eurofins SafetyScreen44 (BI); settings: Compound concentration 10.0 uM
Rattus norvegicus [17] = species on record: Rattus norvegicus; test: K+/VOLT/RA Eurofins SafetyScreen44 (BI); settings: Compound concentration 10.0 uM
[18] = molecular target: Sodium-dependent noradrenaline transporter (Homo sapiens) (UniProt P23975); settings: Compound concentration 10.0 uM
[19] = molecular target: Beta-2 adrenergic receptor (Homo sapiens) (UniProt P07550); settings: Compound concentration 10.0 uM
[20] = molecular target: Serotonin 3 (5-HT3) receptor (Homo sapiens) (UniProt P46098+A5X5Y0+O95264+Q70Z44+Q8WXA8); test: 5HT3/H Eurofins SafetyScreen44 (BI); assay type: protein-complex assay; settings: Compound concentration 10.0 uM
[21] = molecular target: Endothelin-converting enzyme 1 (Homo sapiens) (UniProt P42892); test: ECE(H) Eurofins SafetyScreen44 (BI); settings: Compound concentration 10.0 uM
[22] = molecular target: 5-hydroxytryptamine receptor 2A (Homo sapiens) (UniProt P28223); settings: Compound concentration 10.0 uM
[23] = molecular target: Histamine H1 receptor (Homo sapiens) (UniProt P35367); test: H1/PYRIL/HS Eurofins SafetyScreen44 (BI); settings: Compound concentration 10.0 uM
Chymase = Chymase (Homo sapiens, UniProt P23946); test: Angiotensin II formation by CMA1 in human plasma; assay type: cell-free
[24] = molecular target: Alpha-1A adrenergic receptor (Homo sapiens) (UniProt P35348); settings: Compound concentration 10.0 uM
Chymase (Homo sapiens) = Chymase (Homo sapiens) (UniProt P23946); settings: Compound concentration 10.0 uM
[25] = molecular target: Angiotensin-converting enzyme 2 (Homo sapiens) (UniProt Q9BYF1); test: ACE-2(HU) Eurofins SafetyScreen44 (BI); settings: Compound concentration 10.0 uM
[26] = molecular target: Histamine H2 receptor (Homo sapiens) (UniProt P25021); test: H2/APT/HS Eurofins SafetyScreen44 (BI); settings: filed as antagonist, Compound concentration 10.0 uM
[27] = molecular target: Interstitial collagenase (Homo sapiens) (UniProt P03956); test: MMP1 (H) Eurofins SafetyScreen44 (BI); settings: Compound concentration 10.0 uM
[28] = molecular target: 5-hydroxytryptamine receptor 2B (Homo sapiens) (UniProt P41595); settings: Compound concentration 10.0 uM
hERG (KCNH2) = hERG (KCNH2) (Homo sapiens, UniProt Q12809); test: HERG_DOFETILIDE Eurofins SafetyScreen44 (BI); set-up: mode of action inhibitor; settings: probe [3H] Dofetilide, compound concentration 10 uM, read-out: % Ctrl
Rattus norvegicus [29] = species on record: Rattus norvegicus; settings: Compound concentration 10.0 uM
[30] = molecular target: Beta-1 adrenergic receptor (Homo sapiens) (UniProt P08588); settings: Compound concentration 10.0 uM
[31] = molecular target: Beta-1 adrenergic receptor (Homo sapiens) (UniProt P08588); test: BETA1/HUM Eurofins SafetyScreen44 (BI); settings: Compound concentration 10.0 uM
[32] = molecular target: Alpha-1A adrenergic receptor (Homo sapiens) (UniProt P35348); test: ALPHA1AH_ANTAG Eurofins SafetyScreen44 (BI); settings: filed as antagonist, Compound concentration 10.0 uM
[33] = molecular target: Alpha-1B adrenergic receptor (Homo sapiens) (UniProt P35368); settings: Compound concentration 10.0 uM
[34] = molecular target: 5-hydroxytryptamine receptor 1D (Homo sapiens, UniProt P28221); test: GPCRScan assay: inhibition of 5-HT1D; set-up: radioligand conc. used [nm] 1.0 – 2.0, parental cells HEKT
Chain of 5-hydroxytryptamine receptor 1D (P28221 whole entry): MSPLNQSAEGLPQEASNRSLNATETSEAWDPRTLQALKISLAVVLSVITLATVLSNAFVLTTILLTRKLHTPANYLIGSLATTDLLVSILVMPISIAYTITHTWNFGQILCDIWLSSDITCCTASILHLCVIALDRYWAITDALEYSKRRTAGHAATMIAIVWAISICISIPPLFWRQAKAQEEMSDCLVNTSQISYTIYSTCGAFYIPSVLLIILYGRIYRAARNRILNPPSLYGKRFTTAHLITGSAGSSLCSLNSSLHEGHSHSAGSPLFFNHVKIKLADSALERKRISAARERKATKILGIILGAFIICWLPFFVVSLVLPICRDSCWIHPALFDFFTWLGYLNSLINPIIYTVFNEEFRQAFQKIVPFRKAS

Chain of 5-hydroxytryptamine receptor 2B (Homo sapiens) (P41595 whole entry): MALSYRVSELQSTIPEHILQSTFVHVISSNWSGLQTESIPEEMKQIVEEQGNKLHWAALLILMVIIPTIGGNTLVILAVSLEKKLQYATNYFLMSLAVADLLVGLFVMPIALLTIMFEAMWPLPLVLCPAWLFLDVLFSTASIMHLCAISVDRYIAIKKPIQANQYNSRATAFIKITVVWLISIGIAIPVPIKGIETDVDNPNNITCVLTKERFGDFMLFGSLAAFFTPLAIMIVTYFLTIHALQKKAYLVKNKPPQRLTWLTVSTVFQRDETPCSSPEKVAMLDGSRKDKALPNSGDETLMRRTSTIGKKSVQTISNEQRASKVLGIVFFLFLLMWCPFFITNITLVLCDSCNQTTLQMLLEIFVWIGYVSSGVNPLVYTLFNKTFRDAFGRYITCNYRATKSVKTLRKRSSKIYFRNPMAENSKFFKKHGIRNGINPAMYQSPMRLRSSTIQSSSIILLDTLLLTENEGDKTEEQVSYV
Chain of Beta-1 adrenergic receptor (Homo sapiens) (P08588 whole entry, looked up): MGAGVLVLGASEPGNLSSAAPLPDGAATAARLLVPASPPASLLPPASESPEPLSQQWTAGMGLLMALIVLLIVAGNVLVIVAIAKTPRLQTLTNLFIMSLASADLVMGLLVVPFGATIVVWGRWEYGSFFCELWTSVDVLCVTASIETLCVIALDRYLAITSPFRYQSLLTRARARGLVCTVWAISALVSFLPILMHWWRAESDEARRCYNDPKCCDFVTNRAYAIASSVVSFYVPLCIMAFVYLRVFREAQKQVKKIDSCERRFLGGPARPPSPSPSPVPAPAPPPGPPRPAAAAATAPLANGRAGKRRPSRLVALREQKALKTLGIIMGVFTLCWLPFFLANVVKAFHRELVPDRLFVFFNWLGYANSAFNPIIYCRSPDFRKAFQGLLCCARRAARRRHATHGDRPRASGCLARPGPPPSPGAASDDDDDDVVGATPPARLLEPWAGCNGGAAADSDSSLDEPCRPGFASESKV
Chain of Histamine H2 receptor (Homo sapiens) (P25021 whole entry): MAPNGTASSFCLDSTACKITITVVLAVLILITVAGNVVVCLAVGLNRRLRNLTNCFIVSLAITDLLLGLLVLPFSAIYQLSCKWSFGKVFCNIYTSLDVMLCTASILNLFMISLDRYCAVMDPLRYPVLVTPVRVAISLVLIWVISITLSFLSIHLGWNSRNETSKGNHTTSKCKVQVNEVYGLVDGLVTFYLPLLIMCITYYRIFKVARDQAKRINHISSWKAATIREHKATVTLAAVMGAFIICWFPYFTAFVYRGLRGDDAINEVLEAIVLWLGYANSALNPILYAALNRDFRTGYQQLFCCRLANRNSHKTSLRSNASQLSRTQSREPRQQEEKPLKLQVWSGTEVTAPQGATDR
Chain of Alpha-1A adrenergic receptor (Homo sapiens) (P35348 whole entry): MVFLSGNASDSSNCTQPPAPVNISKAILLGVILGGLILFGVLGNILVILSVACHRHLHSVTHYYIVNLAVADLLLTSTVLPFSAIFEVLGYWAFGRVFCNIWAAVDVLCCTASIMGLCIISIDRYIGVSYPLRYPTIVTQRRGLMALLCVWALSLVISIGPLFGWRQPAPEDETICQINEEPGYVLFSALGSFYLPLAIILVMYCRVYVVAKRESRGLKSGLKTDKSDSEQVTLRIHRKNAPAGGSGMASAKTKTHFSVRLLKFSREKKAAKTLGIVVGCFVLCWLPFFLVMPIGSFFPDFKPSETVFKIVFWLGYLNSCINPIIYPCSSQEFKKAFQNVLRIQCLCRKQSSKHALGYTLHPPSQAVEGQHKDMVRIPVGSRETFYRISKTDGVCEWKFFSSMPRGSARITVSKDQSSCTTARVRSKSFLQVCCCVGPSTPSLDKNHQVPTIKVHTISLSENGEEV
Chain of Chymase (Homo sapiens) (P23946 whole entry): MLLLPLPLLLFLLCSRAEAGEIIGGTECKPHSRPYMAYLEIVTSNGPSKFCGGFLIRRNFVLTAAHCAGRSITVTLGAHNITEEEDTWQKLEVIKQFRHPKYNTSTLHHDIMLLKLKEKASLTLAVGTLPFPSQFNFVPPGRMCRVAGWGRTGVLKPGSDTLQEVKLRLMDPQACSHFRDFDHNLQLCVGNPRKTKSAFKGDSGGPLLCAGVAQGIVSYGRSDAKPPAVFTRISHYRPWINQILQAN
Chain of Chymase (P23946 whole entry): as above
Chain of Cathepsin E (Homo sapiens) (P14091 whole entry): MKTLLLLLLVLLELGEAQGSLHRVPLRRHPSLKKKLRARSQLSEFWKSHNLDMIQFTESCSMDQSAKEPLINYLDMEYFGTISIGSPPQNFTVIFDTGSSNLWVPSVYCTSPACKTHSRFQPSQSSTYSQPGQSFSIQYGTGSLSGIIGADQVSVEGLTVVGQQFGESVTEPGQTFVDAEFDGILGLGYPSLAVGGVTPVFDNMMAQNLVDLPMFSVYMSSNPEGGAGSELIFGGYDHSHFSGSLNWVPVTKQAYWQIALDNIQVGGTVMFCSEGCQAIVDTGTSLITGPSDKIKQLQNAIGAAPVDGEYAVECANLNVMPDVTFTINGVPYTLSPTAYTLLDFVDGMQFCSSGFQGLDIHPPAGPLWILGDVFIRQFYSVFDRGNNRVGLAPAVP
Chain of Histamine H3 receptor (Homo sapiens) (Q9Y5N1 whole entry): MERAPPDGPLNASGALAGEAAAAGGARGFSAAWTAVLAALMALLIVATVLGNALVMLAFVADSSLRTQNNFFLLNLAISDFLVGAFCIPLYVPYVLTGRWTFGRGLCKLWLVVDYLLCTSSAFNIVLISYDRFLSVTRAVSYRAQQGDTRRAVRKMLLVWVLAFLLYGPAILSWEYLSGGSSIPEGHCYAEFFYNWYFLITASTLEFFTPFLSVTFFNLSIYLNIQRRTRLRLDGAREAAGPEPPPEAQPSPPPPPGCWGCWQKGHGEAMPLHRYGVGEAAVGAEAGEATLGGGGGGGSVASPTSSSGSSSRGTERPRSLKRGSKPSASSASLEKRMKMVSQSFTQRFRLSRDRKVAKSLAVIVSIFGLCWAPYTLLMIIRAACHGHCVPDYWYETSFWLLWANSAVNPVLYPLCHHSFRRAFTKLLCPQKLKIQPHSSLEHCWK
Chain of Alpha-1B adrenergic receptor (Homo sapiens) (P35368 whole entry): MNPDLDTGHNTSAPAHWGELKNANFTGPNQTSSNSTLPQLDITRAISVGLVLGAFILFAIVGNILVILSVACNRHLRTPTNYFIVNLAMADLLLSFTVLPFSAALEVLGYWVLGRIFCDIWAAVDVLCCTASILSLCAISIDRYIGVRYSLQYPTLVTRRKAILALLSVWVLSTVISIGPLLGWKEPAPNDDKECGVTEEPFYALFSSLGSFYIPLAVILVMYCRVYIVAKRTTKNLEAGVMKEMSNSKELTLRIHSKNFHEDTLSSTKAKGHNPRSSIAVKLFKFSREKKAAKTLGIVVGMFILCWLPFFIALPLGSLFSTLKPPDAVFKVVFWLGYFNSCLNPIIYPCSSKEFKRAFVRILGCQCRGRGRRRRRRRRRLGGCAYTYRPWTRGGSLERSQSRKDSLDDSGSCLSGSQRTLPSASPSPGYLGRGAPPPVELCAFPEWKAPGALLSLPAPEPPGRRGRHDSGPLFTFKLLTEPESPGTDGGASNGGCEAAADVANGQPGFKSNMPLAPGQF
Chain of Alpha-2B adrenergic receptor (Homo sapiens) (P18089 whole entry): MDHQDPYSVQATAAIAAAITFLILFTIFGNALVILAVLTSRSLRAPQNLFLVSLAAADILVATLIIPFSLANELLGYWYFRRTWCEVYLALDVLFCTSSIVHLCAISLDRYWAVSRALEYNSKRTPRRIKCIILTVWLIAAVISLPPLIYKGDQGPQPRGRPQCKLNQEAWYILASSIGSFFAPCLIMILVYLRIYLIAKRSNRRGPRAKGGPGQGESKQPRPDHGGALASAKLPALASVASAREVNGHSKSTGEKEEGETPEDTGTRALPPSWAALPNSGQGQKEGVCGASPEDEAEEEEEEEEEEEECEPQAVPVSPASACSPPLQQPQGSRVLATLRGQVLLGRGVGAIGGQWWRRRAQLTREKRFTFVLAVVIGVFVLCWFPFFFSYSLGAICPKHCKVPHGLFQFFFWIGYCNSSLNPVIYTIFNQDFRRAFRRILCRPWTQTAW
Chain of Cathepsin Z (Homo sapiens) (Q9UBR2 whole entry): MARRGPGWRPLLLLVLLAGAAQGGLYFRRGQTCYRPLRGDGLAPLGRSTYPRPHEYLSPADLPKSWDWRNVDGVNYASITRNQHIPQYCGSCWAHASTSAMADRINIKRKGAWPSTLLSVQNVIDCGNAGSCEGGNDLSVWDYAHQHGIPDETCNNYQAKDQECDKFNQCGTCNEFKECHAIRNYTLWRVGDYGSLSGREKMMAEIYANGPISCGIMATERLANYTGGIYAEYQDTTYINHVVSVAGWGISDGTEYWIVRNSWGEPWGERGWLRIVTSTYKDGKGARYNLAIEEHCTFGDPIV
Chain of Cathepsin G (Homo sapiens) (P08311 whole entry): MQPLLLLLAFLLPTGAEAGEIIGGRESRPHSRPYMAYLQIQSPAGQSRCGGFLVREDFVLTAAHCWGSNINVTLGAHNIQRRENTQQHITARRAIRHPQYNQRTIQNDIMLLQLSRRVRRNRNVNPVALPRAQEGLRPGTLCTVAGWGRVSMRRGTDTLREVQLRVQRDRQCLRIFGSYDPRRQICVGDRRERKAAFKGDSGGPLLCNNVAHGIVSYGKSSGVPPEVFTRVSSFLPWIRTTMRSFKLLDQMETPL

inhibition [2]: 20.3%
inhibition [4]: -4.71%
inhibition [5]: 6.86%
inhibition [6]: 0.56%
inhibition [7]: 5.01%
inhibition [11]: 3.32%
inhibition [14]: 8.83%
inhibition [18]: 31.5%
inhibition [19]: 10.5%
inhibition [22]: 0.22%
IC50 (Chymase): 0.198 µM (active)
inhibition [24]: 0.23%
residual activity (Chymase (Homo sapiens)): -1%
inhibition [28]: 5.53%
inhibition (Rattus norvegicus [29]): 12.2%
inhibition [30]: 10.4%
inhibition [33]: -5.58%
Ki [34]: 1.13 µM
SMILES: CC[C@H](CC(=O)O)n1c(=O)c2ncccc2n(Cc2cn(C)c3cc(C)cc(C)c23)c1=O [BI-1942]
residual activity [1]: 100%
residual activity [3]: 113%
residual activity [8]: 98%
residual activity [9]: 127%
residual activity [10]: 106%
residual activity [12]: 115%
residual activity [13]: 129%
residual activity [15]: -2%
residual activity [16]: 98%
residual activity (Rattus norvegicus [17]): 104%
residual activity [20]: 97%
residual activity [21]: 82%
residual activity [23]: 100%
residual activity [25]: 127%
residual activity [26]: 114%
residual activity [27]: 97%
activity at 10 µM (hERG (KCNH2)): 105% (not active)
residual activity [31]: 105%
residual activity [32]: 103%
